How the values were obtained:
memapsin 2 = memapsin 2 (Homo sapiens, UniProt P56817); assay: Inhibition of memapsin 2 beta-secretase activity toward fluorogenic substrate FS-2; type: biochemical; details: pH 4, 37° C., 20 minutes pre-incubation, read-out: M2 Ki
Summary of the method: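 Enzyme pre-incubated with compound 20 min at pH 4, 37 °C, then fluorogenic substrate FS-2 added. Inhibition derived from rate of fluorescence increase from peptide hydrolysis.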

memapsin 1 = target: T1, memapsin 1 (Homo sapiens, UniProt Q9Y5Z0); assay: Inhibition of memapsin 1 beta-secretase activity (substrate peptide hydrolysis, MALDI-TOF); type: biochemical; details: pH 4.1, 37 degrees C., read-out: M1 Ki
T1 sequence (Q9Y5Z0 63-518): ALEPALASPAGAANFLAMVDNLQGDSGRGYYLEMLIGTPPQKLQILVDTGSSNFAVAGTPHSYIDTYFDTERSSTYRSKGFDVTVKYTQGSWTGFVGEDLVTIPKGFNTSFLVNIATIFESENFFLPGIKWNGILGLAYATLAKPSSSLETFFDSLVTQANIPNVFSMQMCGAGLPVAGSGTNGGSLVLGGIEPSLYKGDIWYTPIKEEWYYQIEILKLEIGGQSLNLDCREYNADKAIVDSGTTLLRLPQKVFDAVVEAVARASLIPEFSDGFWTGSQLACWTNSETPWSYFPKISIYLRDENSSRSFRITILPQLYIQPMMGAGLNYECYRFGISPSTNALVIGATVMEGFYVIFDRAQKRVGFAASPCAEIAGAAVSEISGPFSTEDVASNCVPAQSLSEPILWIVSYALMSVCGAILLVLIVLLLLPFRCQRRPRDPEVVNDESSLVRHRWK

Cathepsin D = Cathepsin D (Homo sapiens, UniProt P07339); assay: Inhibition of cathepsin D activity (substrate peptide hydrolysis, MALDI-TOF); type: biochemical; details: pH 4.1, 37 degrees C., read-out: Cath D Ki
Chain of Cathepsin D (P07339 65-412, species assumed): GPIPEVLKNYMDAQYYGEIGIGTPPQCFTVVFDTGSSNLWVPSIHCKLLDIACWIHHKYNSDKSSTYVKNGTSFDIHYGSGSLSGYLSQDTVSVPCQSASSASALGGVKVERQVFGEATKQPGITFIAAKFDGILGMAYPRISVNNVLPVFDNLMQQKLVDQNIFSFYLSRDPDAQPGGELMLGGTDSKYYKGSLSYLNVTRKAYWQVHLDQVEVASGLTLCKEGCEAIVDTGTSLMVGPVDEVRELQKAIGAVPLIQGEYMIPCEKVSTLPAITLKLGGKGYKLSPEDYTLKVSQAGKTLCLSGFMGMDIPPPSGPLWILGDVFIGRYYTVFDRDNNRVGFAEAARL

Aβ production = assay: Cellular Aβ IC50 determination (Aβ40 sandwich ELISA); type: cell-based; details: Cricetulus griseus, Chinese hamster ovary cells over-expressing human APP695 with London and Swedish mutations, 24 h
Summary of the method: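 CHO cells over-expressing human APP695 (London and Swedish mutations) were treated 48 h after seeding with serially diluted compound, top final concentration near 4 μM (0.4% DMSO), for 24 h at 37 °C, 5% CO2. Aβ40 in medium was measured by sandwich ELISA; values relative to control were fit to a 4-parameter IC50 model.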

Chain of memapsin 2 (P56817 46-501): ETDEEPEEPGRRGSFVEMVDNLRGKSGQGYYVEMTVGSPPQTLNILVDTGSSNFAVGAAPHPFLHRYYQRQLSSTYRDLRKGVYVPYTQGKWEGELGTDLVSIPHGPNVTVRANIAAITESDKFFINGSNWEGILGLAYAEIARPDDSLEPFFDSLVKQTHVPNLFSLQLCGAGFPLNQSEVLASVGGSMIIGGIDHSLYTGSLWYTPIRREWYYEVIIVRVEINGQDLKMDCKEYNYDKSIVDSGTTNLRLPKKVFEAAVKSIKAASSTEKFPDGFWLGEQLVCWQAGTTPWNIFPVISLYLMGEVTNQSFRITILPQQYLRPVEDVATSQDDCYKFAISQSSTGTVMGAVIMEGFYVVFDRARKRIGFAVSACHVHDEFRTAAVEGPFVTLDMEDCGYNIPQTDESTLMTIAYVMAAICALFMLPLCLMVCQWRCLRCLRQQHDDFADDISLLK

SMILES | Ki (memapsin 2) [µM] | Ki (memapsin 1) [µM] | Ki (Cathepsin D) [µM] | IC50 (Aβ production) [µM]
COc1cccc(CNC(=O)C(C)CC(O)C(CC(C)C)NC(=O)c2cc(C(=O)NC(C)c3ccccc3)cc(N(C)S(C)(=O)=O)c2)c1 (centres unmarked) [N1-(5-hydroxy-8-(3-methoxybenzylamino)-2,7-dimethyl-8-oxooctan-4-yl)-5-(N-methylmethylsulfonamido)-N3-(1-phenylethyl)isophthalamide] | > 5 | > 5 | > 5 | 10 to 20
CC(C)CC(NC(=O)c1cc(C(=O)NC(C)c2ccccc2)cc(N(C)S(C)(=O)=O)c1)C(O)CC(C)C(=O)NCc1ccccc1 (centres unmarked) [N1-(8-(benzylamino)-5-hydroxy-2,7-dimethyl-8-oxooctan-4-yl)-5-(N-methylmethylsulfonamido)-N3-(1-phenylethyl)isophthalamide] | 2 to 5 | 2 to 5 | > 5 | > 20
CCN(Cc1ccncc1)C(=O)c1cc(C)cc(C(=O)NC(CC(C)C)C(O)CC(C)C(=O)NC(C(=O)NCC(C)C)C(C)C)c1 (centres unmarked) [N1-ethyl-N3-(5-hydroxy-8-(1-(isobutylamino)-3-methyl-1-oxobutan-2-ylamino)-2,7-dimethyl-8-oxooctan-4-yl)-5-methyl-N1-(pyridin-4-ylmethyl)isophthalamide] | 0.405 to 2 | < 0.405 | < 0.405 | > 20
CC(C)CNC(=O)C(NC(=O)C(C)CC(O)C(CC(C)C)NC(=O)c1cncc(C(=O)N(C)Cc2ccccn2)c1)C(C)C (centres unmarked) [N3-(5-hydroxy-8-(1-(isobutylamino)-3-methyl-1-oxobutan-2-ylamino)-2,7-dimethyl-8-oxooctan-4-yl)-N5-methyl-N5-(pyridin-2-ylmethyl)pyridine-3,5-dicarboxamide] | < 0.405 | < 0.405 | < 0.405 | > 20
CC(C)CC(NC(=O)c1cc(C(=O)NC(C)c2ccccc2)cc(N(C)C(=O)OC2CCOC2)c1)C(O)CC(C)C(=O)NC(C(=O)NC(C)C)C(C)C (centres unmarked) [tetrahydrofuran-3-yl 3-(5-hydroxy-8-(1-(isopropylamino)-3-methyl-1-oxobutan-2-ylamino)-2,7-dimethyl-8-oxooctan-4-ylcarbamoyl)-5-(1-phenylethylcarbamoyl)phenyl(methyl)carbamate] | 0.405 to 2 | < 0.405 | < 0.405 | > 20

Now from value to compound:

Ki (memapsin 2) [µM] | Ki (memapsin 1) [µM] | Ki (Cathepsin D) [µM] | IC50 (Aβ production) [µM] | SMILES
< 0.405 | < 0.405 | < 0.405 | > 20 | CC(C)CNC(=O)C(NC(=O)C(C)CC(O)C(CC(C)C)NC(=O)c1cccc(C(=O)N(C)Cc2cccnc2)c1)C(C)C (centres unmarked) [N1-(5-hydroxy-8-(1-(isobutylamino)-3-methyl-1-oxobutan-2-ylamino)-2,7-dimethyl-8-oxooctan-4-yl)-N3-methyl-N3-(pyridin-3-ylmethyl)isophthalamide]
< 0.405 | > 5 | 0.405 to 2 | < 5 | CCC(NC(=O)C(C)CC(O)C(CC(C)C)NC(=O)c1cccc(C(=O)N(C)Cc2nc(C)cs2)c1)C(=O)NC(C)C (centres unmarked) [N1-(5-hydroxy-8-(1-(isopropylamino)-1-oxobutan-2-ylamino)-2,7-dimethyl-8-oxooctan-4-yl)-N3-methyl-N3-((4-methylthiazol-2-yl)methyl)isophthalamide]
< 0.405 | < 0.405 | < 0.405 | < 5 | CCN1CCCC1CNC(=O)C(NC(=O)C(C)CC(O)C(CC(C)C)NC(=O)c1cc(C(=O)NC(C)c2ccccc2)cc(N(C)S(C)(=O)=O)c1)C(C)C (centres unmarked) [N1-(8-(1-((1-ethylpyrrolidin-2-yl)methylamino)-3-methyl-1-oxobutan-2-ylamino)-5-hydroxy-2,7-dimethyl-8-oxooctan-4-yl)-5-(N-methylmethylsulfonamido)-N3-(1-phenylethyl)isophthalamide]
< 0.405 | < 0.405 | > 5 | > 20 | CCc1csc(CN(C)C(=O)c2cccc(C(=O)NC(CC(C)C)C(O)CC(C)C(=O)NC(C(=O)NCC(C)C)C(C)C)c2)n1 (centres unmarked) [N1-((4-ethylthiazol-2-yl)methyl)-N3-(5-hydroxy-8-(1-(isobutylamino)-3-methyl-1-oxobutan-2-ylamino)-2,7-dimethyl-8-oxooctan-4-yl)-N1-methylisophthalamide]
< 0.405 | 0.405 to 2 | < 0.405 | > 20 | CC(C)CNC(=O)C(NC(=O)C(C)CC(O)C(CC(C)C)NC(=O)c1cccc(C(=O)N(C)Cc2ccco2)c1)C(C)C (centres unmarked) [N1-(furan-2-ylmethyl)-N3-(5-hydroxy-8-(1-(isobutylamino)-3-methyl-1-oxobutan-2-ylamino)-2,7-dimethyl-8-oxooctan-4-yl)-N1-methylisophthalamide]
< 0.405 | < 0.405 | < 0.405 | 10 to 20 | CC(C)CNC(=O)C(NC(=O)C(C)CC(O)C(CC(C)C)NC(=O)c1cc(C(=O)N(C)Cc2ccccc2)cc(N(C)S(C)(=O)=O)c1)C(C)C (centres unmarked) [N1-benzyl-N3-(5-hydroxy-8-(1-(isobutylamino)-3-methyl-1-oxobutan-2-ylamino)-2,7-dimethyl-8-oxooctan-4-yl)-N1-methyl-5-(N-methylmethylsulfonamido)isophthalamide]

Reference: US20080207527A1, “Bicyclic Compounds Which Inhibit Beta-Secretase Activity and Methods of Use Thereof” (CoMentis, Inc., priority 2004, published 2008)
